Data reported in patent publication US8921385B2, “5-substituted quinazolinone derivatives and compositions comprising and methods of using the same” (Celgene Corporation, priority 2006, dated 2014).
Where a name gives a salt, the structure may show the parent alone.

Structure (SMILES)	melting point
Cc1nc2cccc(CNC(=O)CN(C)C)c2c(=O)n1C1CCC(=O)NC1=O (stereo not shown) [Example 6.35, 2-Dimethylamino-N-[3-(2,6-Dioxo-Piperidin-3-yl)-2-Methyl-4-Oxo-3,4-Dihydro-Quinazolin-5-ylmethyl]-Acetamide]	275 °C (dec.)
COCC(=O)Nc1cccc2nc(C)n(C3CCC(=O)NC3=O)c(=O)c12 (stereo not shown) [Example 6.20, N-[3-(2,6-Dioxo-Piperidin-3-yl)-2-Methyl-4-Oxo-3,4-Dihydro-Quinazolin-5-yl]-2-Methoxy-Acetamide]	282 to 284 °C
Cc1cccc2nc(C)n(C3CCC(=O)NC3=O)c(=O)c12 (stereo not shown) [Example 6.2, 3-(2,5-Dimethyl-4-Oxo-4H-Quinazolin-3-yl)-Piperidine-2,6-Dione]	292 to 294 °C
CC(=O)Nc1cccc2nc(C)n(C3CCC(=O)NC3=O)c(=O)c12 (stereo not shown) [Example 6.21, N-[3-(2,6-Dioxo-Piperidin-3-yl)-2-Methyl-4-Oxo-3,4-Dihydro-Quinazolin-5-yl]-Acetamide]	320 to 322 °C
Cc1cccc2nc(C(F)(F)F)n(C3CCC(=O)NC3=O)c(=O)c12 (stereo not shown) [Example 6.15, 3-(5-Methyl-4-Oxo-2-Trifluoromethyl-4H-Quinazolin-3-yl)-Piperidine-2,6-Dione]	308 to 310 °C
Cc1nc2cccc(NC(=O)c3cccc(Cl)c3)c2c(=O)n1C1CCC(=O)NC1=O (stereo not shown) [Example 6.36, 3-Chloro-N-[3-(2,6-Dioxo-Piperidin-3-yl)-2-Methyl-4-Oxo-3,4-Dihydro-Quinazolin-5-yl]-Benzamide]	326 to 328 °C
O=C1CCC(n2cnc3cccc(Cl)c3c2=O)C(=O)N1 (stereo not shown) [Example 6.12, 3-(5-Chloro-4-Oxo-4H-Quinazolin-3-yl)-Piperidine-2,6-Dione]	308 to 310 °C
CCCC(=O)NCc1cccc2nc(C)n(C3CCC(=O)NC3=O)c(=O)c12 (stereo not shown) [Example 6.31, N-[3-(2,6-Dioxo-Piperidin-3-yl)-2-Methyl-4-Oxo-3,4-Dihydro-Quinazolin-5-ylmethyl]-Butyramide]	250 to 252 °C
Cc1nc2cccc(CNC(=O)OC(C)(C)C)c2c(=O)n1C1CCC(=O)NC1=O (stereo not shown) [Example 6.28, [3-(2,6-Dioxo-Piperidin-3-yl)-2-Methyl-4-Oxo-3,4-Dihydro-Quinazolin-5-ylmethyl]-Carbamic Acid Tert-Butyl Ester]	206 to 208 °C
Cc1nc2cccc(CN)c2c(=O)n1C1CCC(=O)NC1=O.Cl (stereo not shown)	256 °C (dec.)
Cc1cccc2nc(-c3ccccc3)n(C3CCC(=O)NC3=O)c(=O)c12 (stereo not shown) [Example 6.16, 3-(5-Methyl-4-Oxo-2-Phenyl-4H-Quinazolin-3-yl)-Piperidine-2,6-Dione]	298 to 300 °C
COc1cccc2nc(C)n(C3CCC(=O)NC3=O)c(=O)c12 (stereo not shown) [Example 6.8, 3-(5-Methoxy-2-Methyl-4-Oxo-4H-Quinazolin-3-yl)-Piperidine-2,6-Dione]	274 to 276 °C
CCCCCCC(=O)Nc1cccc2nc(C)n(C3CCC(=O)NC3=O)c(=O)c12 (stereo not shown) [Example 6.23, Heptanoic Acid [3-(2,6-Dioxo-Piperidin-3-yl)-2-Methyl-4-Oxo-3,4-Dihydro-Quinazolin-5-yl]-Amide]	230 to 232 °C
Cc1cccc2ncn(C3CCC(=O)NC3=O)c(=O)c12 (stereo not shown) [Example 6.1, 3-(5-Methyl-4-Oxo-4H-Quinazolin-3-yl)-Piperidine-2,6-Dione]	262 to 264 °C
CCOC(=O)Nc1cccc2nc(C)n(C3CCC(=O)NC3=O)c(=O)c12 (stereo not shown) [Example 6.27, [3-(2,6-Dioxo-Piperidin-3-yl)-2-Methyl-4-Oxo-3,4-Dihydro-Quinazolin-5-yl]-Carbamic Acid Ethyl Ester]	284 to 286 °C (dec.)
Cc1cccc2nc(C)n([C@@]3(C)CCC(=O)NC3=O)c(=O)c12 [Example 6.7, 3R-3-(2,5-Dimethyl-4-Oxo-4H-Quinazolin-3-yl)-3-Methyl-Piperidine-2,6-Dione]	298 to 301 °C
Cc1cccc2nc(O)n(C3CCC(=O)NC3=O)c(=O)c12 (stereo not shown) [Example 6.5, 3-(2-Hydroxy-5-Methyl-4-Oxo-4H-Quinazolin-3-yl)-Piperidine-2,6-Dione]	373 to 375 °C
Cc1nc2cccc(CNC(=O)CC(C)(C)C)c2c(=O)n1C1CCC(=O)NC1=O (stereo not shown) [Example 6.33, N-[3-(2,6-Dioxo-Piperidin-3-yl)-2-Methyl-4-Oxo-3,4-Dihydro-Quinazolin-5-ylmethyl]-3,3-Dimethyl-Butyramide]	212 to 214 °C
Cc1nc2cccc(Cl)c2c(=O)n1C1CCC(=O)NC1=O (stereo not shown) [Example 6.10, 3-(5-Chloro-2-Methyl-4-Oxo-4H-Quinazolin-3-yl)-Piperidine-2,6-Dione]	315 °C (dec.)
Cc1nc2cccc(C(F)(F)F)c2c(=O)n1C1CCC(=O)NC1=O (stereo not shown) [Example 6.11, 3-(2-Methyl-4-Oxo-5-Trifluoromethyl-4H-Quinazolin-3-yl)-Piperidine-2,6-Dione]	268 to 270 °C
Cc1nc2cccc(NC(=O)CN(C)C)c2c(=O)n1C1CCC(=O)NC1=O (stereo not shown) (as salt: chloride) [Example 6.25, 2-Dimethylamino-N-[3-(2,6-Dioxo-Piperidin-3-yl)-2-Methyl-4-Oxo-3,4-Dihydro-Quinazolin-5-yl]-Acetamide Hydrogen Chloride]	256 to 258 °C
Cc1nc2cccc(N)c2c(=O)n1[C@]1(C)CCC(=O)NC1=O [Example 6.19, (R)-3-(5-Amino-2-Methyl-4-Oxoquinazolin-3(4H)-yl)-3-Methylpiperidine-2,6-Dione]	295 to 297 °C
CCCCCCC(=O)NCc1cccc2nc(C)n(C3CCC(=O)NC3=O)c(=O)c12 (stereo not shown) [Example 6.32, Heptanoic Acid [3-(2,6-Dioxo-Piperidin-3-yl)-2-Methyl-4-Oxo-3,4-Dihydro-Quinazolin-5-ylmethyl]-Amide]	208 to 210 °C

Second part, the compound after the results:

melting point	Structure (SMILES)
253 to 255 °C	Cc1nc2cccc(CNC(=O)c3ccc(C(F)(F)F)cc3)c2c(=O)n1C1CCC(=O)NC1=O (stereo not shown) [Example 6.53, N-[3-(2,6-Dioxo-Piperidin-3-yl)-2-Methyl-4-Oxo-3,4-Dihydro-Quinazolin-5-ylmethyl]-4-Trifluoromethyl-Benzamide]
250 to 252 °C	Cc1ccc(NC(=O)NCc2cccc3nc(C)n(C4CCC(=O)NC4=O)c(=O)c23)cc1Cl (stereo not shown) [Example 6.47, 1-(3-Chloro-4-Methyl-Phenyl)-3-[3-(2,6-Dioxo-Piperidin-3-yl)-2-Methyl-4-Oxo-3,4-Dihydro-Quinazolin-5-ylmethyl]-Urea]
264 to 266 °C	Cc1ccc(CC(=O)NCc2cccc3nc(C)n(C4CCC(=O)NC4=O)c(=O)c23)cc1F (stereo not shown) [Example 6.44, N-[3-(2,6-Dioxo-Piperidin-3-yl)-2-Methyl-4-Oxo-3,4-Dihydro-Quinazolin-5-ylmethyl]-2-(3-Fluoro-4-Methyl-Phenyl)-Acetamide]
258 to 260 °C	Cc1nc2cccc(CNC(=O)c3ccc(OC(F)(F)F)cc3)c2c(=O)n1C1CCC(=O)NC1=O (stereo not shown) [Example 6.54, N-[3-(2,6-Dioxo-Piperidin-3-yl)-2-Methyl-4-Oxo-3,4-Dihydro-Quinazolin-5-ylmethyl]-4-Trifluoromethoxy-Benzamide]
199 to 201 °C	Cc1nc2cccc(CNC(=O)Cc3ccc(C(F)(F)F)cc3)c2c(=O)n1C1CCC(=O)NC1=O (stereo not shown) [Example 6.45, N-[3-(2,6-Dioxo-Piperidin-3-yl)-2-Methyl-4-Oxo-3,4-Dihydro-Quinazolin-5-ylmethyl]-2-(4-Trifluoromethyl-Phenyl)-Acetamide]
263 to 265 °C	Cc1cccc(C(=O)NCc2cccc3nc(C)n(C4CCC(=O)NC4=O)c(=O)c23)c1 (stereo not shown) [Example 6.50, N-[3-(2,6-Dioxo-Piperidin-3-yl)-2-Methyl-4-Oxo-3,4-Dihydro-Quinazolin-5-ylmethyl]-3-Methyl-Benzamide]
255 to 257 °C	Cc1nc2cccc(CNC(=O)Nc3ccc(Cl)cc3)c2c(=O)n1C1CCC(=O)NC1=O (stereo not shown) [Example 6.46, 1-(4-Chloro-Phenyl)-3-[3-(2,6-Dioxo-Piperidin-3-yl)-2-Methyl-4-Oxo-3,4-Dihydro-Quinazolin-5-ylmethyl]-Urea]
233 to 235 °C	Cc1nc2cccc(CNC(=O)c3cccc(C(F)(F)F)c3)c2c(=O)n1C1CCC(=O)NC1=O (stereo not shown) [Example 6.57, N-[3-(2,6-Dioxo-Piperidin-3-yl)-2-Methyl-4-Oxo-3,4-Dihydro-Quinazolin-5-ylmethyl]-3-Trifluoromethyl-Benzamide]
285 °C (dec.)	Cc1nc2cccc(CNC(=O)Cc3ccc(Cl)cc3)c2c(=O)n1C1CCC(=O)NC1=O (stereo not shown) [Example 6.40, 2-(4-Chloro-Phenyl)-N-[3-(2,6-Dioxo-Piperidin-3-yl)-2-Methyl-4-Oxo-3,4-Dihydro-Quinazolin-5-ylmethyl]-Acetamide]
241 to 243 °C	Cc1ccc(NC(=O)NCc2cccc3nc(C)n(C4CCC(=O)NC4=O)c(=O)c23)cc1C (stereo not shown) [Example 6.48, 1-(3,4-Dimethyl-Phenyl)-3-[3-(2,6-Dioxo-Piperidin-3-yl)-2-Methyl-4-Oxo-3,4-Dihydro-Quinazolin-5-ylmethyl]-Urea]
240 to 242 °C	Cc1nc2cccc(CNC(=O)c3cccc(F)c3)c2c(=O)n1C1CCC(=O)NC1=O (stereo not shown) [Example 6.52, N-[3-(2,6-Dioxo-Piperidin-3-yl)-2-Methyl-4-Oxo-3,4-Dihydro-Quinazolin-5-ylmethyl]-3-Fluoro-Benzamide]
276 to 278 °C	Cc1nc2cccc(CNC(=O)c3ccc(Cl)cc3)c2c(=O)n1C1CCC(=O)NC1=O (stereo not shown) [Example 6.51, 4-Chloro-N-[3-(2,6-Dioxo-Piperidin-3-yl)-2-Methyl-4-Oxo-3,4-Dihydro-Quinazolin-5-ylmethyl]-Benzamide]
271 to 273 °C	Cc1nc2cccc(CNC(=O)c3ccc(Cl)c(Cl)c3)c2c(=O)n1C1CCC(=O)NC1=O (stereo not shown) [Example 6.56, 3,4-Dichloro-N-[3-(2,6-Dioxo-Piperidin-3-yl)-2-Methyl-4-Oxo-3,4-Dihydro-Quinazolin-5-ylmethyl]-Benzamide]
247 to 249 °C	Cc1nc2cccc(CNC(=O)c3ccccc3)c2c(=O)n1C1CCC(=O)NC1=O (stereo not shown) [Example 6.55, N-[3-(2,6-Dioxo-Piperidin-3-yl)-2-Methyl-4-Oxo-3,4-Dihydro-Quinazolin-5-ylmethyl]-Benzamide]
